This passage reports IC50 and EC50 results from patent EP1984353B1, “AURORA KINASE MODULATORS AND METHOD OF USE” (Amgen, Inc, priority 2006, dated 2007).

Some results are limits rather than exact numbers.

One assay addresses T1, AuroraA-TPX2 (Homo sapiens, UniProt O14965).
T1 construct: 20 µL of AuroraA-TPX2 KD GST; GST
T1 sequence (O14965 133-383 limits assumed): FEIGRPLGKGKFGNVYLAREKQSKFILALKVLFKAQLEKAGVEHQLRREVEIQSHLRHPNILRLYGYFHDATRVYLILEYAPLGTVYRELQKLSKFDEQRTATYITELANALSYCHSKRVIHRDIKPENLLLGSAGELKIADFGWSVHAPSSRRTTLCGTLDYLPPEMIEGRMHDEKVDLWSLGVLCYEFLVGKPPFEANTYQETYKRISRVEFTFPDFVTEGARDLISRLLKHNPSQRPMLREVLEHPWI
T1 sequence (Q9ULW0 1-43 partner limits assumed): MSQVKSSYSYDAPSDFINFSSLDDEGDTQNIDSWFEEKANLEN
In words: AuroraA-TPX2 Homogeneous Time Resolved Fluorescent (HTRF) kinase assay. Type of assay: biochemical. The note with it: average; given as class symbols; read-out: AurA/TP X2_ IC50_IP (Avg). The method, boiled down: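 HTRF read-out: europium anti-phosphoPLK antibody (0.02 nM) plus streptavidin-APC detect phosphorylated biotin-PLK after EDTA stop and overnight equilibration. Kinase step runs about 120 min with Aurora-A/TPX2, ATP and roughly 1 µM PLK peptide at pH 7.5 HEPES buffer with Mg2+ and DTT.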
A general note: TR-FRET usually uses a lanthanide donor and a delayed reading to cut background.

For the next assay, the target named is T2, AuroraB (Homo sapiens, UniProt Q96GD4).
T2 construct: 20 µL of AuroraB FL His; His
In words: AuroraB Homogeneous Time Resolved Fluorescent (HTRF) kinase assay. Type of assay: biochemical. Particulars: average; given as class symbols; read-out: AurB_ _IC50_IP (Avg). The method in brief:
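HTRF read-out: after EDTA stop and ~60 min with europium anti-phospho-H3 antibody and streptavidin-APC, 655/615 nm ratio reports phosphorylation. Reaction: 400 pM AuroraB FL His, 23 µM ATP (at Km(app)), 0.1 µM biotin-Histone H3 peptide, 50 mM HEPES pH 7.5, MgCl/MnCl, ~90 min.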

In assay [1] the test system is phosphorylation of Histone H3. Put plainly: HeLa cell 1-hour phospho-histone assay. Type of assay: cell-based. Particulars: Homo sapiens, HeLa, 1 h, HeLa cells, 1 hour; average; given as class symbols; read-out: pHH3 EC50_IP (Avg). The method, boiled down:
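HeLa cells were exposed to serially diluted compounds for 1 hour at 37 °C (0.5% DMSO final), then fixed, permeabilized and immunostained for phospho-histone H3 (Ser10) with Hoechst counterstain. High-content imaging scored the percentage of pHH3-positive cells.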

T2 sequence (Q96GD4 whole entry): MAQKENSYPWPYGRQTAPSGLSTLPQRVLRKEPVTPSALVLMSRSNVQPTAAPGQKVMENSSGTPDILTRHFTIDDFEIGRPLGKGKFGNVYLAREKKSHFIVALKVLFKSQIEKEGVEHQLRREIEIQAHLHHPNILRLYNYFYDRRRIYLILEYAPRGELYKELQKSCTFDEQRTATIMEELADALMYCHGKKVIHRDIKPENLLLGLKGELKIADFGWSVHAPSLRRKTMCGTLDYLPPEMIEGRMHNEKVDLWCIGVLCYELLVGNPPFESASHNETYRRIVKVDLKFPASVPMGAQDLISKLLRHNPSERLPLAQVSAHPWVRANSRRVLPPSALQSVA

As to `Nc1nccc(-c2cccnc2Oc2ccc(Nc3nnc(-c4cccc(O)c4)c4ccccc34)cc2)n1` [compound 343, 3-(4-((4-((3-(2-amino-4-pyrimidinyl)-2-pyridinyl)oxy)phenyl)amino)-1-phthalazinyl)phenol], the IC50 on AuroraA-TPX2 and at AuroraB was at most 100 nM throughout. Moreover, the EC50 in assay [1] is at most 100 nM.
For the compound `Nc1nccc(-c2cccnc2Oc2ccc(Nc3nnc(-c4cccc(CCCO)c4)c4ccccc34)cc2)n1` [compound 344, 3-(3-(4-((4-((3-(2-amino-4-pyrimidinyl)-2-pyridinyl)oxy)phenyl)amino)-1-phthalazinyl)phenyl)-1-propanol], the IC50 on AuroraA-TPX2 and at AuroraB was at most 100 nM in each case. For the same compound, in assay [1], the EC50 is at most 100 nM.
Consider `Cc1csc(-c2nnc(Nc3ccc(Oc4ncccc4-c4ccnc(N)c4)cc3)c3ccccc23)n1` [compound 345, 2-((4-((4-(4-methyl-1,3-thiazol-2-yl)-1-phthalazinyl)amino)phenyl)oxy)-3,4'-bipyridin-2'-amine], for which the IC50 at AuroraA-TPX2 and on AuroraB was at most 100 nM throughout. Besides, the EC50 in assay [1] lay in the range of 100 to 500 nM.
On to `CC(O)c1cccc(-c2nnc(Nc3ccc(Oc4ncccc4-c4ccnc(N)n4)cc3)c3ccccc23)c1` (stereo not drawn) [compound 346, 1-(3-(4-((4-((3-(2-amino-4-pyrimidinyl)-2-pyridinyl)oxy)phenyl)amino)-1-phthalazinyl)phenyl)ethanol], for which the IC50 on AuroraA-TPX2 and on AuroraB was at most 100 nM each time. The EC50 in assay [1] is 100 to 500 nM.
In the case of `CCN(CCO)CCCCNc1nccc(-c2cccnc2Oc2ccc(Nc3nnc(-c4ccccc4)c4ccccc34)cc2)n1` [compound 347, 2-(ethyl(4-((4-(2-((4-((4-phenyl-1-phthalazinyl)amino)phenyl)oxy)-3-pyridinyl)-2-pyrimidinyl)amino)butyl)amino)ethanol], the IC50 on AuroraA-TPX2 and on AuroraB was at most 100 nM in each case. The EC50 in assay [1] was at most 100 nM.
`CCN(CCO)CCCCNc1nccc(-c2cccnc2Oc2ccc(Nc3nnc(-c4ccccc4)cc3C)cc2)n1` [compound 348, 2-(ethyl(4-((4-(2-((4-((4-methyl-6-phenyl-3-pyridazinyl)amino)phenyl)oxy)-3-pyridinyl)-2-pyrimidinyl)amino)butyl)amino)ethanol]: the IC50 on AuroraA-TPX2 and at AuroraB was at most 100 nM each time. Besides, in assay [1], the EC50 lay in the range of 100 to 500 nM.
Consider `CCN(CCO)CCCNc1nccc(-c2cccnc2Oc2ccc(Nc3nnc(-c4ccccc4)c4ccccc34)cc2)n1` [compound 349, 2-(ethyl(3-((4-(2-((4-((4-phenyl-1-phthalazinyl)amino)phenyl)oxy)-3-pyridinyl)-2-pyrimidinyl)amino)propyl)amino)ethanol], for which the results for the IC50 on AuroraA-TPX2 and on AuroraB were 100 to 500 nM and at most 100 nM, respectively. In addition, the EC50 in assay [1] lay in the range of 100 to 500 nM.
In the case of `CCN(CCO)CCCNc1nccc(-c2cccnc2Oc2ccc(Nc3nnc(-c4ccccc4)cc3C)cc2)n1` [compound 350, 2-(ethyl(3-((4-(2-((4-((4-methyl-6-phenyl-3-pyridazinyl)amino)phenyl)oxy)-3-pyridinyl)-2-pyrimidinyl)amino)propyl)amino)ethanol], the IC50 on AuroraA-TPX2 and at AuroraB was at most 100 nM throughout. Moreover, in assay [1], the EC50 was in the range of 100 to 500 nM.
In the case of `Cc1cc(-c2ccccc2)nnc1Nc1ccc(Oc2ncccc2-c2ccncc2)cc1` [compound 417, N-(4-(3,4'-bipyridin-2-yloxy)phenyl)-4-methyl-6-phenyl-3-pyridazinamine], the IC50 on AuroraA-TPX2 and at AuroraB was at most 100 nM in each case. Also, the EC50 in assay [1] fell in the range of 500 to 2500 nM.
On to `O=S(=O)(O)CCCNc1nccc(-c2cccnc2Oc2ccc(Nc3nnc(-c4ccccc4)c4ccccc34)cc2)n1` [compound 421, 3-((4-(2-((4-((4-phenyl-1-phthalazinyl)amino)phenyl)oxy)-3-pyridinyl)-2-pyrimidinyl)amino)-1-propanesulfonic acid], for which the IC50 at AuroraA-TPX2 and on AuroraB was 100 to 500 nM in each case. The EC50 in assay [1] was 500 to 2500 nM.
With `Cc1cc(-c2ccccc2)nnc1Nc1ccc(Oc2ncccc2-c2ccnc(NCCCN3CCN(C)CC3)n2)cc1` [compound 422, 4-methyl-N-(4-((3-(2-((3-(4-methyl-1-piperazinyl)propyl)amino)-4-pyrimidinyl)-2-pyridinyl)oxy)phenyl)-6-phenyl-3-pyridazinamine], the IC50 on AuroraA-TPX2 and at AuroraB was at most 100 nM throughout. Moreover, in assay [1], the EC50 was 100 to 500 nM.
Take `Cc1cc(-c2ccccc2)nnc1Nc1ccc(Oc2ncccc2-c2ccnc(NCCCCN(C)C)n2)cc1` [compound 423, N,N-dimethyl-N'-(4-(2-((4-((4-methyl-6-phenyl-3-pyridazinyl)amino)phenyl)oxy)-3-pyridinyl)-2-pyrimidinyl)-1,4-butanediamine]: the IC50 at AuroraA-TPX2 and at AuroraB was at most 100 nM in each case. In addition, in assay [1], the EC50 is 100 to 500 nM.
On to `Cc1cc(-c2ccccc2)nnc1Nc1ccc(Oc2ncccc2-c2ccnc(NCCCN3CCCCC3)n2)cc1` [compound 424, 4-methyl-6-phenyl-N-(4-((3-(2-((3-(1-piperidinyl)propyl)amino)-4-pyrimidinyl)-2-pyridinyl)oxy)phenyl)-3-pyridazinamine], for which the IC50 on AuroraA-TPX2 and at AuroraB was at most 100 nM throughout. In assay [1], the EC50 was 100 to 500 nM.
`Cc1cc(-c2ccccc2)nnc1Nc1ccc(Oc2ncccc2-c2ccnc(NCCCN3CCCC3)n2)cc1` [compound 425, 4-methyl-6-phenyl-N-(4-((3-(2-((3-(1-pyrrolidinyl)propyl)amino)-4-pyrimidinyl)-2-pyridinyl)oxy)phenyl)-3-pyridazinamine]: the IC50 on AuroraA-TPX2 and on AuroraB was at most 100 nM throughout. In addition, the EC50 in assay [1] fell in the range of 100 to 500 nM.
For `CCN(CC)CCCNc1nccc(-c2cccnc2Oc2ccc(Nc3nnc(-c4ccccc4)cc3C)cc2)n1` [compound 426, N,N-diethyl-N'-(4-(2-((4-((4-methyl-6-phenyl-3-pyridazinyl)amino)phenyl)oxy)-3-pyridinyl)-2-pyrimidinyl)-1,3-propanediamine], the IC50 at AuroraA-TPX2 and at AuroraB was at most 100 nM each time. For the same compound, the EC50 in assay [1] is 100 to 500 nM.
`Nc1nccc(-c2cccnc2Oc2ccc(Nc3nnc(-c4ccccc4)cc3C(=O)O)cc2)n1` [compound 433, 3-((4-((3-(2-amino-4-pyrimidinyl)-2-pyridinyl)oxy)phenyl)amino)-6-phenyl-4-pyridazinecarboxylic acid]: the IC50 at AuroraA-TPX2 and at AuroraB was 500 to 2500 nM throughout. Further, the EC50 in assay [1] lay in the range of 500 to 2500 nM.
